Experimental data from the supplement of paper PMC10627819.

Experiments:
B. subtilis 168 [1] = assay: fitness (endpoint OD595 vs no drug) (fraction); higher = more growth
Outline: (§1)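 Cultures at OD595 0.01 were dispensed into 384-well plates in TSB, LB Lennox or CY and incubated at 37 °C. Every 30 min for 14 h, OD595 was read and corrected by the first reading. Fitness is the optical density at entry into stationary phase relative to the robust mean of no-drug control wells, capped at 1.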

S. pneumoniae D39V [2] = assay: as above
Outline: as §1

B. subtilis 168 [3] = assay: Bliss interaction score (quartile over a dose matrix) (fitness difference); higher = more antagonism (negative = synergy)
Outline: (§2)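 The Bliss score subtracts expected fitness, the product of the single-drug fitness values, from observed fitness. Fitness is plate-normalised OD595 at entry into stationary phase, relative to the robust no-drug mean and capped at 1, with single-drug fitness inferred from combinations. Summaries are quartiles over technical, biological and donor/recipient replicates.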

S. aureus DSM 20231 = assay: as above
Outline: as §2

S. aureus Newman = assay: as above
Outline: as §2

S. pneumoniae D39V [4] = assay: as above
Outline: as §2
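Throughout, for Bliss interaction score (quartile over a dose matrix): first quartile when negative (synergy) and third quartile when positive (antagonism).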

C[C@H]1COc2c(N3CCN(C)CC3)c(F)cc3c(=O)c(C(=O)O)cn1c23 [Levofloxacin] + Cc1cc(NS(=O)(=O)c2ccc(N)cc2)no1 [Sulfamethoxazol]
fitness, one replicate
Settings | partner 0.5 µg/mL | partner 1 µg/mL | partner 2 µg/mL | partner 4 µg/mL
B. subtilis 168 [1], first compound 0.001 µg/mL | – | 0.98 | 0.98 | 0.929
B. subtilis 168 [1], first compound 0.002 µg/mL | 0.955 | – | – | 0.885
B. subtilis 168 [1], first compound 0.0039 µg/mL | 0.939 | – | – | 0.834
B. subtilis 168 [1], first compound 0.0078 µg/mL | 0.862 | 0.782 | 0.788 | –
S. pneumoniae D39V [2], first compound 0.2 µg/mL | – | 0.955 | 0.902 | 0.841
S. pneumoniae D39V [2], first compound 0.4 µg/mL | – | 0.854 | 0.87 | 0.771
S. pneumoniae D39V [2], first compound 0.8 µg/mL | – | 0.373 | 0.495 | 0.487

fitness
Settings | partner 1 µg/mL | partner 2 µg/mL | partner 4 µg/mL
B. subtilis 168 [1], first compound 0.002 µg/mL | 0.867 | 0.881 | –
B. subtilis 168 [1], first compound 0.0039 µg/mL | 0.831 | 0.841 | –
B. subtilis 168 [1], first compound 0.0312 µg/mL | 0.0318 | 0.0375 | 0.0268
B. subtilis 168 [1], first compound 0.0625 µg/mL | 0.0358 | 0.0467 | 0.0289
B. subtilis 168 [1], first compound 0.125 µg/mL | 0.0382 | 0.0353 | 0.0242
S. pneumoniae D39V [2], first compound 0.1725 µg/mL | 0.935 | 0.972 | 0.967
S. pneumoniae D39V [2], first compound 0.345 µg/mL | 0.824 | 0.827 | 0.833
S. pneumoniae D39V [2], first compound 0.69 µg/mL | 0.455 | 0.461 | 0.498

Settings | Bliss interaction score
B. subtilis 168 [3] | -0.0263
S. aureus DSM 20231 | -0.125
S. aureus Newman | 0.0779
S. pneumoniae D39V [4] | -0.0634

C[C@H]1COc2c(N3CCN(C)CC3)c(F)cc3c(=O)c(C(=O)O)cn1c23 [Levofloxacin] + Cc1ncc([N+](=O)[O-])n1CCO [Metronidazole]
fitness, B. subtilis 168 [1], one replicate
Settings | first compound 0.001 µg/mL | first compound 0.002 µg/mL | first compound 0.0039 µg/mL
partner 0.625 µg/mL | 0.946 | 0.911 | 0.852
partner 1.25 µg/mL | 0.96 | 0.85 | 0.845
partner 2.5 µg/mL | 0.965 | 0.929 | 0.855

Settings | fitness
B. subtilis 168 [1], first compound 0.0312 µg/mL, partner 0.625 µg/mL | 0.0462
B. subtilis 168 [1], first compound 0.0312 µg/mL, partner 1.25 µg/mL | 0.0567
B. subtilis 168 [1], first compound 0.0312 µg/mL, partner 2.5 µg/mL | 0.0324
B. subtilis 168 [1], first compound 0.0625 µg/mL, partner 0.625 µg/mL | 0.0491
B. subtilis 168 [1], first compound 0.0625 µg/mL, partner 1.25 µg/mL | 0.0521
B. subtilis 168 [1], first compound 0.0625 µg/mL, partner 2.5 µg/mL | 0.0541
B. subtilis 168 [1], first compound 0.125 µg/mL, partner 0.625 µg/mL | 0.0404
B. subtilis 168 [1], first compound 0.125 µg/mL, partner 1.25 µg/mL | 0.0466
B. subtilis 168 [1], first compound 0.125 µg/mL, partner 2.5 µg/mL | 0.0398
S. pneumoniae D39V [2], first compound 0.1725 µg/mL, partner 1.25 µg/mL | 0.985
S. pneumoniae D39V [2], first compound 0.1725 µg/mL, partner 2.5 µg/mL | 0.993
S. pneumoniae D39V [2], first compound 0.1725 µg/mL, partner 5 µg/mL | 0.976
S. pneumoniae D39V [2], first compound 0.2 µg/mL, partner 1.073 µg/mL | 0.95
S. pneumoniae D39V [2], first compound 0.2 µg/mL, partner 2.145 µg/mL | 0.91
S. pneumoniae D39V [2], first compound 0.2 µg/mL, partner 4.29 µg/mL | 0.899
S. pneumoniae D39V [2], first compound 0.345 µg/mL, partner 1.25 µg/mL | 0.903
S. pneumoniae D39V [2], first compound 0.345 µg/mL, partner 2.5 µg/mL | 0.92
S. pneumoniae D39V [2], first compound 0.345 µg/mL, partner 5 µg/mL | 0.931
S. pneumoniae D39V [2], first compound 0.4 µg/mL, partner 1.073 µg/mL | 0.873
S. pneumoniae D39V [2], first compound 0.4 µg/mL, partner 2.145 µg/mL | 0.85
S. pneumoniae D39V [2], first compound 0.4 µg/mL, partner 4.29 µg/mL | 0.819
S. pneumoniae D39V [2], first compound 0.69 µg/mL, partner 1.25 µg/mL | 0.7
S. pneumoniae D39V [2], first compound 0.69 µg/mL, partner 2.5 µg/mL | 0.704
S. pneumoniae D39V [2], first compound 0.69 µg/mL, partner 5 µg/mL | 0.686
S. pneumoniae D39V [2], first compound 0.8 µg/mL, partner 1.073 µg/mL | 0.765
S. pneumoniae D39V [2], first compound 0.8 µg/mL, partner 2.145 µg/mL | 0.765
S. pneumoniae D39V [2], first compound 0.8 µg/mL, partner 4.29 µg/mL | 0.71

Settings | Bliss interaction score
B. subtilis 168 [3] | 0.0195
S. aureus DSM 20231 | -0.0575
S. aureus Newman | -0.0661
S. pneumoniae D39V [4] | 0.121

C[C@H]1COc2c(N3CCN(C)CC3)c(F)cc3c(=O)c(C(=O)O)cn1c23 [Levofloxacin] + Cc1onc(-c2ccccc2)c1C(=O)N[C@@H]1C(=O)N2[C@@H]1SC(C)(C)[C@@H]2C(=O)O [Oxacillin]
fitness, B. subtilis 168 [1], one replicate
Settings | partner 0.0078 µg/mL | partner 0.0155 µg/mL | partner 0.031 µg/mL | partner 0.075 µg/mL | partner 0.15 µg/mL | partner 0.3 µg/mL
first compound 0.001 µg/mL | 0.942 | 0.965 | 0.932 | – | – | –
first compound 0.002 µg/mL | 0.898 | 0.936 | 0.876 | 0.476 | 0.0412 | 0.0517
first compound 0.0039 µg/mL | 0.832 | 0.849 | 0.741 | 0.416 | 0.038 | 0.0324
first compound 0.0078 µg/mL | – | – | – | 0.592 | 0.0582 | 0.0577

Settings | fitness
B. subtilis 168 [1], first compound 0.0312 µg/mL, partner 0.002 µg/mL | 0.0448
B. subtilis 168 [1], first compound 0.0312 µg/mL, partner 0.004 µg/mL | 0.0387
B. subtilis 168 [1], first compound 0.0312 µg/mL, partner 0.008 µg/mL | 0.0483
B. subtilis 168 [1], first compound 0.0625 µg/mL, partner 0.002 µg/mL | 0.0429
B. subtilis 168 [1], first compound 0.0625 µg/mL, partner 0.004 µg/mL | 0.0548
B. subtilis 168 [1], first compound 0.0625 µg/mL, partner 0.008 µg/mL | 0.0559
B. subtilis 168 [1], first compound 0.125 µg/mL, partner 0.002 µg/mL | 0.0397
B. subtilis 168 [1], first compound 0.125 µg/mL, partner 0.004 µg/mL | 0.0414
B. subtilis 168 [1], first compound 0.125 µg/mL, partner 0.008 µg/mL | 0.0574
S. pneumoniae D39V [2], first compound 0.1725 µg/mL, partner 0.01 µg/mL | 0.972
S. pneumoniae D39V [2], first compound 0.1725 µg/mL, partner 0.02 µg/mL | 0.917
S. pneumoniae D39V [2], first compound 0.2 µg/mL, partner 0.01 µg/mL | 0.928
S. pneumoniae D39V [2], first compound 0.2 µg/mL, partner 0.02 µg/mL | 0.898
S. pneumoniae D39V [2], first compound 0.2 µg/mL, partner 0.04 µg/mL | 0.495
S. pneumoniae D39V [2], first compound 0.345 µg/mL, partner 0.01 µg/mL | 0.9
S. pneumoniae D39V [2], first compound 0.345 µg/mL, partner 0.02 µg/mL | 0.894
S. pneumoniae D39V [2], first compound 0.4 µg/mL, partner 0.01 µg/mL | 0.809
S. pneumoniae D39V [2], first compound 0.4 µg/mL, partner 0.02 µg/mL | 0.785
S. pneumoniae D39V [2], first compound 0.4 µg/mL, partner 0.04 µg/mL | 0.402
S. pneumoniae D39V [2], first compound 0.69 µg/mL, partner 0.01 µg/mL | 0.704
S. pneumoniae D39V [2], first compound 0.69 µg/mL, partner 0.02 µg/mL | 0.571
S. pneumoniae D39V [2], first compound 0.8 µg/mL, partner 0.04 µg/mL | 0.24

Settings | Bliss interaction score
B. subtilis 168 [3] | -0.0169
S. aureus DSM 20231 | 0.0488
S. aureus Newman | 0.0619
S. pneumoniae D39V [4] | 0.11

CN(C)C(=O)C(CCN1CCC(O)(c2ccc(Cl)cc2)CC1)(c1ccccc1)c1ccccc1 [Loperamide] + CC1=C\[C@@H](O)CC(=O)Cc2nc(co2)C(=O)N2CCC=C2C(=O)O[C@H](C(C)C)[C@H](C)/C=C/C(=O)NC\C=C\1 [Virginiamycin M1]
Settings | fitness
B. subtilis 168 [1], first compound 25 µg/mL, partner 0.0625 µg/mL | 0.809
B. subtilis 168 [1], first compound 25 µg/mL, partner 0.125 µg/mL | 0.745
B. subtilis 168 [1], first compound 25 µg/mL, partner 0.25 µg/mL | 0.755
B. subtilis 168 [1], first compound 50 µg/mL, partner 0.0625 µg/mL | 0.0261
B. subtilis 168 [1], first compound 50 µg/mL, partner 0.125 µg/mL | 0.0336
B. subtilis 168 [1], first compound 50 µg/mL, partner 0.25 µg/mL | 0.0356
B. subtilis 168 [1], first compound 100 µg/mL, partner 0.0625 µg/mL | 0.0228
B. subtilis 168 [1], first compound 100 µg/mL, partner 0.125 µg/mL | 0.0378
B. subtilis 168 [1], first compound 100 µg/mL, partner 0.25 µg/mL | 0.0328
S. pneumoniae D39V [2], first compound 17.14 µg/mL, partner 0.5 µg/mL | ≥ 1
S. pneumoniae D39V [2], first compound 17.14 µg/mL, partner 1 µg/mL | ≥ 1
S. pneumoniae D39V [2], first compound 17.14 µg/mL, partner 2 µg/mL | ≥ 1
S. pneumoniae D39V [2], first compound 20 µg/mL, partner 2 µg/mL | ≥ 1
S. pneumoniae D39V [2], first compound 34.28 µg/mL, partner 0.5 µg/mL | ≥ 1
S. pneumoniae D39V [2], first compound 34.28 µg/mL, partner 1 µg/mL | ≥ 1
S. pneumoniae D39V [2], first compound 34.28 µg/mL, partner 2 µg/mL | ≥ 1
S. pneumoniae D39V [2], first compound 40 µg/mL, partner 2 µg/mL | ≥ 1

fitness, S. pneumoniae D39V [2], one replicate
Settings | partner 0.15 µg/mL | partner 0.3 µg/mL | partner 0.5 µg/mL | partner 1 µg/mL | partner 2 µg/mL
first compound 20 µg/mL | ≥ 1 | 0.999 | ≥ 1 | ≥ 1 | –
first compound 40 µg/mL | ≥ 1 | ≥ 1 | ≥ 1 | ≥ 1 | –
first compound 68.57 µg/mL | – | – | ≥ 1 | ≥ 1 | ≥ 1
first compound 80 µg/mL | ≥ 1 | ≥ 1 | 0.348 | 0.0702 | –

Settings | Bliss interaction score
B. subtilis 168 [3] | -0.0999
S. aureus DSM 20231 | -0.211
S. aureus Newman | 0.0415
S. pneumoniae D39V [4] | 0.0883
